Measurements as given in patent US11167007B2, “FOXM1 modulators and uses thereof” (City of Hope, priority 2016, dated 2021).

How the values were obtained:
[1] = biological target: T1, AR with a 24 glutamine tract (normal) (Homo sapiens, UniProt P10275, DUP80-80); test: Luciferase reporter assay in HEK293 cells transfected with ARQ24; type: cell-based; conditions: HEK293, AR 24 glutamines, FIG. 2C
T1 construct: expressed in transfected cells; host or cells: HEK293
Source text: Luciferase Reporter Assay. Cells were transfected using Lipofectamine Plus (Invitrogen) with a normalization plasmid (pRL-SV40, Promega) and an androgen responsive plasmid (MMTV-luciferase or PSA-luciferase) as described in Jones et al, ACS Chem Biol, 3(7):412-8 (2008), and, where indicated, with an shRNA plasmid targeting FOXM1 (adapted for mouse FOXM1 sequence targeting) a scrambled control shRNA plasmid, or ARQ24 or ARQ65 plasmids. Christensen et al, PLoS One, 8(1):e54556 (2013). The following day, cells and drugs were distributed to 96-well plates. 24 hours later, luciferase activity was assessed by a dual luciferase assay kit (Promega) on the Tecan plate reader. Samples were run in quadruplicates and a Student's t test was performed to determine significance, where p<0.05 was considered significant.
SBMA is caused by the activity of polyglutamine-expanded AR, and experiments were conducted to investigate the effects of thiostrepton against polyglutamine-expanded AR. AR-negative HEK293 cells were transfected with plasmids encoding AR with a 24 glutamine tract (normal) or with a 65 glutamine tract (disease associated). The polyglutamine-expanded AR was less transcriptionally active than the normal AR, as has been previously documented for such constructs. Kazemi-Esfarjani et al, Hum Mol Genet, 4:523-527 (1995).

AR activity in LA muscle = test: RT-qPCR of androgen-regulated transcripts in LA muscle; type: in vivo, rat; conditions: rats, four genes, FIG. 5H
Procedure: Animals and Drugs. This study was carried out in strict accordance with the recommendations in the Guide for the Care and Use of Laboratory Animals of the National Institutes of Health. All experiments were performed under the IUCAC approval of City of Hope. Animals were purchased from Jackson Laboratory (Bar Harbor, Main). For the pilot pharmacokinetic experiment, nine male Sprague Dawley rats (n=3) were administered 1, 10, or 100 mg/kg intraperitoneal injections thrice per week for four weeks. One hour following the final dose, blood and spinal fluid were collected and analyzed by mass spectrometry. For the efficacy experiment, rats were divided into 3 groups (n=7) as follows: intact, castrated, and thiostrepton. […] Following a treatment period of 7 days, rats were euthanized and organs harvested, weighed and processed for quantitative RT-PCR.
qRT-PCR. The quantitative RT-PCR method has been described by Jones et al, ACS Chem Biol, 3(7):412-8 (2008). […] Differences between experimental (x) and control (y) samples were normalized to RPL19 transcript levels (androgen unresponsive) and determined with the following calculation: (2^(Ctsgene1-Ctygene1))/(2^(CtxRPL19-CtyRPL19)) One-way analysis of variance was applied to determine statistical significant among groups, where p<0.05 was considered significant. […]

T1 sequence (P10275 with tags, fused parts or gaps DUP80-80): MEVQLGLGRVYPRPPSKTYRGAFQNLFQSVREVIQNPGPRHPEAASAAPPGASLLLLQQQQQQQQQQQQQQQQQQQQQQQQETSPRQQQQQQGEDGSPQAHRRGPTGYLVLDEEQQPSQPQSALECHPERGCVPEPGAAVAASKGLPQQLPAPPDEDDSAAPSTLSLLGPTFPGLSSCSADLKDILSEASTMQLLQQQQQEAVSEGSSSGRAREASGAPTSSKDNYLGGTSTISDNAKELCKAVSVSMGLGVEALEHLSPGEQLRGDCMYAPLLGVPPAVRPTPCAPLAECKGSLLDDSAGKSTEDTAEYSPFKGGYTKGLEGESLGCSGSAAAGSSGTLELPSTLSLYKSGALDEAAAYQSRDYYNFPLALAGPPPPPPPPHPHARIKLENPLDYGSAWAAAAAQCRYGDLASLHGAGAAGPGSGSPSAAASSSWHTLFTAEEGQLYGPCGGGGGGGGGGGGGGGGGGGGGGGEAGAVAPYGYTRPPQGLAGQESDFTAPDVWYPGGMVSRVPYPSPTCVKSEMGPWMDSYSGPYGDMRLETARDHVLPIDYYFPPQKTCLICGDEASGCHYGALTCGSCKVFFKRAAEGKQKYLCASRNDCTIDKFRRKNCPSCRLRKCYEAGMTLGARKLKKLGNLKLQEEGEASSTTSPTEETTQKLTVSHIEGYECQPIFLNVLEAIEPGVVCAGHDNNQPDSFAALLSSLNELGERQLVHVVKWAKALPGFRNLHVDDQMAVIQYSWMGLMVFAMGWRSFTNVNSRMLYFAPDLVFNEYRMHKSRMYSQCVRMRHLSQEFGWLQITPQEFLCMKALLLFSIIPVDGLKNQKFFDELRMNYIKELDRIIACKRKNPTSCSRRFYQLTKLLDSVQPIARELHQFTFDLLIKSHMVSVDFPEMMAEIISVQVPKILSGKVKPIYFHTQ

Q: How did the “inhibition of non-expanded AR activity (luciferase)” value [1] turn out when `C=C(NC(=O)C(=C)NC(=O)c1csc(C2=N[C@@H]3c4csc(n4)[C@H]4NC(=O)c5csc(n5)[C@H]([C@](C)(O)[C@@H](C)O)NC(=O)[C@H]5CSC(=N5)/C(=C/C)NC(=O)[C@H]([C@@H](C)O)NC(=O)c5csc(n5)[C@]3(CC2)NC(=O)[C@H](C)NC(=O)C(=C)NC(=O)[C@H](C)NC(=O)[C@H]([C@@H](C)CC)N[C@@H]2C=Cc3c([C@H](C)O)cc(nc3[C@H]2O)C(=O)O[C@@H]4C)n1)C(N)=O` [thiostrepton] was run?
A: inhibited

Q: And the “androgen-dependent gene transcript levels in LA muscle” value (AR activity in LA muscle)?
A: did not significantly affect
